Data: US12214076B2, “Drug delivery vehicles for atherosclerosis nanomedicine” (Northwestern University, priority 2019, dated 2025)
Peptide text beside a SMILES is read from it. * marks the point of attachment. Palmitoyl = CCCCCCCCCCCCCCCC(=O)*

Columns and labels:
Type in all cases: in vivo, mouse
[1] = Off-target localization in internal organs, fluorescent pixel analysis
Experimental: (§1) Dose and concentration study: To determine the optimum concentration for targeting efficacy and safety, LDLR KO mice fed the high fat diet for 14 weeks were injected with PA nanofiber at concentrations of 1 mg/mL, 2 mg/mL, and 4 mg/mL at 8 mg/kg in PBS. Similarly, to determine the optimum dose for targeting efficacy and safety, LDLR KO mice fed the high fat diet for 14 weeks were injected at PA nanofiber doses of 8 mg/kg, 6 mg/kg, 4 mg/kg, 3.3 mg/kg, and 1.7 mg/kg at 2 mg/mL in PBS. Safety, optimum dose, and concentration for targeting was assessed by survival of the animal and fluorescent pixel quantification in the aortic root, liver, lungs, kidneys, and spleen.
(§2) Tissue processing and imaging: Mice were sacrificed and euthanized under inhaled isoflurane anesthesia by diaphragm disruption and exsanguination. Phlebotomy was performed through direct right ventricular cardiac puncture using a 1 mL syringe and 25 G needle. Perfusion was performed through left ventricular cardiac puncture with 10 mL PBS and 10 mL 10% sucrose solution. The lungs, liver, spleen, kidney, aortic root, aortic arch, and descending aorta were harvested and stored in 10% sucrose for 20 minutes. Organs and vessels were then flash-frozen in Optimal Cutting Temperature embedding medium 4583 (Tissue-Tek®) with liquid nitrogen. Frozen specimens were stored at −80° C. and cryosectioned at […]. Confocal microscopy was performed on a Nikon AIR microscope. Two sets of images were acquired with a 10× Plan Fluor NA 0.3 objective. PAs were identified through quantification of the Alexa Fluor® 546 conjugated dye with 561 nm excitation and a 600/50 nm emission filter.
Images were acquired with spectral detection and spectrally unmixed to accurately separate green autofluorescence from the red Alexa Fluor® 546 signal. […] Slides were stained with Oil Red O to image and quantify atherosclerosis under brightfield microscopy. […] Fluorescent pixel quantification in the aortic root and within organs was performed with ImageJ software.

LDLR KO mice [2] = test: Targeting of atherosclerosis by IV injected ApoA1 PA nanofibers (Example 3)
Experimental: (§3) Mouse model of atherosclerosis: To study atherosclerosis, the LDLR KO mouse was used. LDLR KO mice are fed a high fat “western” diet (Teklad TD.88137) starting at 4 weeks of age. This diet consists of 20% fat, 0.2% cholesterol, and 34% high sucrose. LDLR KO mice fed this diet typically develop severe hypercholesterolemia (>800 mg/dL) and hypertriglyceridemia (>300 mg/dL) after only 2 weeks. By 12 weeks on the high fat diet, atherosclerotic lesions are detected in the aortic root and aortic arch on cryosections stained with Oil Red O (Sigma). Atherosclerosis was quantified in the aortic root as a percentage of the aortic root by taking the atherosclerotic area divided by the total aortic root area. Measurements were made with ImageJ software. All protocols for the animal model and procedures in this manuscript were approved by Northwestern University's Institutional Animal Care and Use Committee.
Injection of PA nanofibers: PA nanofibers were dissolved at 2-4 mg/mL concentration in room temperature phosphate buffered saline (PBS). After 14 weeks on the high fat diet, mice received intravenous injections of PA nanofiber dissolved in PBS (dorsal penile vein in males, retro-orbital injection in females) using a 31 G hypodermic insulin needle on a 0.3 mL syringe under sterile conditions and magnification (NIKON SMZ 645 Zoom Stereomicroscope). Mice were briefly anesthetized for injection with inhaled isoflurane. Mice were monitored and allowed to recover from anesthesia in a heated oxygen chamber.
as §1, §2
Images were acquired with spectral detection and spectrally unmixed to accurately separate green autofluorescence from the red Alexa Fluor® 546 signal. Brightfield and fluorescent microscopy were performed using a Zeiss Axio Imager.A2 microscope with AxioVision software (release 4.8.2, 06-2010). All confocal and fluorescent sections were mounted with ProGold Diamond mounting media (Sigma). Slides were stained with Oil Red O to image and quantify atherosclerosis under brightfield microscopy. The elastic laminae were identified using the green fluorescent protein (GFP) filter with an exposure time of 3500 ms under 5× magnification. Nanofibers were identified in the aortic root by presence of Alexa Fluor® 546 on the Cy3 filter under 5-10× magnification, and in the internal organs under 20× magnification. […]

[3] = Treatment study serum chemistry (toxicology analysis); conditions: mouse, in vivo
Experimental: (§4) Blood samples were collected at the end of the treatment study for toxicology analysis. Mice were euthanized three days after their 16th treatment.
as §2
(§5) Statistics: The effect of treatments and sex on atherosclerosis progression in mice was analyzed using one- or two-factor analysis of variance (ANOVA) followed by a post-hoc student's t-test. The toxicological effects of treatments were also analyzed using two-factor ANOVA and a post-hoc student's t-test. Toxicological effects of treatments on liver proteins AST, ALT, and ALP were further analyzed using ordinal logistic regression models of likelihood ratio tests, followed by a post-hoc Wald test

LDLR KO mice [4] = test: Atherosclerosis treatment study; conditions: both sexes, twice per week over eight weeks, percent of atherosclerosis in the aortic root
Experimental: as §3, §4, §2
Images were acquired with spectral detection and spectrally unmixed to accurately separate green autofluorescence from the red Alexa Fluor® 546 signal. Brightfield and fluorescent microscopy were performed using a Zeiss Axio Imager.A2 microscope with AxioVision software (release 4.8.2, 06-2010). All confocal and fluorescent sections were mounted with ProGold Diamond mounting media (Sigma). Slides were stained with Oil Red O to image and quantify atherosclerosis under brightfield microscopy. The elastic laminae were identified using the green fluorescent protein (GFP) filter with an exposure time of 3500 ms under 5× magnification. Nanofibers were identified in the aortic root by presence of Alexa Fluor® 546 on the Cy3 filter under 5-10× magnification, and in the internal organs under 20× magnification. Fluorescent pixel quantification in the aortic root and within organs was performed with ImageJ software.
as §5

detection in the lung, liver, and kidney ([1]; 1-14 days post injection): minimal detection
time when red fluorescent pixels returned to non-injected control levels ([1]; all internal organs, post injection): 10 to 14 days
time of detection in the spleen ([1]; post injection): 1 to 10 days
time post injection when fluorescent pixel analysis was not different from control non-injected mice (LDLR KO mice [2]; aortic root): 10 to 14 days
SMILES: CCCCCCCCCCCCCCCC(=O)N[C@H](C(=O)N[C@H](C(=O)N[C@@H](C)C(=O)N[C@@H](C)C(=O)N[C@@H](CCC(=O)O)C(=O)N[C@@H](CCC(=O)O)C(=O)NCC(=O)N[C@@H](CC(=O)O)C(=O)N[C@@H](Cc1c[nH]c2ccccc12)C(=O)N[C@@H](Cc1ccccc1)C(=O)N[C@@H](CCCCN)C(=O)N[C@@H](C)C(=O)N[C@@H](Cc1ccccc1)C(=O)N[C@@H](Cc1ccc(O)cc1)C(=O)N[C@@H](CC(=O)O)C(=O)N[C@@H](CCCCN)C(=O)N[C@H](C(=O)N[C@@H](C)C(=O)N[C@@H](CCC(=O)O)C(=O)N[C@@H](CCCCN)C(=O)N[C@@H](Cc1ccccc1)C(=O)N[C@@H](CCCCN)C(=O)N[C@@H](CCC(=O)O)C(=O)N[C@@H](C)C(=O)N[C@@H](Cc1ccccc1)C(N)=O)C(C)C)C(C)C)C(C)C [ApoA1 PA] (Palmitoyl-VVAAEEGDWFKAFYDKVAEKFKEAF-NH2)
binding duration in areas of atherosclerosis (LDLR KO mice [2]; after injection): remained localized to areas of atherosclerosis at high concentrations for two days
dose dependence of localization at the aortic root (LDLR KO mice [2]; constant concentration 2 mg/mL): Doses of 8 mg/kg and 6 mg/kg were superior to 4 mg/kg, which was superior to 1.7 mg/kg
fluorescent pixels in aortic root, 4 mg/mL vs. 2 mg/mL (LDLR KO mice [2]; constant dose 8 mg/kg, 24 hours after injection): no significant difference
localization in male versus female LDLR KO mice (LDLR KO mice [2]; mouse, in vivo): no statistically significant difference in localization between the sexes
localization to areas of atherosclerosis (LDLR KO mice [2]; within 24 hours after injection, confocal, Alexa Fluor 546): localized to areas of atherosclerosis
Creatine [3]: 0 U/L
aspartate aminotransferase (AST) in the blood in comparison to PBS [3]: Neither ApoA1-LXR PAs nor ApoA1 PAs increased AST levels
atherosclerosis progression in comparison to the PBS control (LDLR KO mice [4]): significantly decreased
